According to paper PMC3951225, “Cytotoxic Sesquiterpene Lactones from Kauna lasiophthalma Griseb” (Scientia Pharmaceutica, 2014):
Entries after “also recorded” stand apart in the source; their conditions may differ.

Columns and labels:
Assay type in all cases: cell-based, human
L56Br-C1 cells = assay: MTT cytotoxicity dose-response assay, L56Br-C1; settings: 72 h treatment, a/b/c = one, two, three or more dose-response curves
Method: (§1) The L56Br-C1 cell line was established at the Department of Oncology, Clinical Sciences, Lund University, Sweden. The JIMT-1 cell line was purchased from the German Collection of Microorganisms and Cell Cultures (Braunschweig, Germany) and the MCF-7, SK-BR-3, HCC1937, and MCF-10A cells were obtained from the American Tissue Type Culture Collection (Manassas, VA, USA). The cell lines were cultured as monolayers at 37°C in a humidified incubator with 5% CO2 in air. The MCF-10A cells have a population doubling time of 15 hours, the JIMT-1 cells 24 hours, and the other four cell lines around 35 hours.
(§2) The L56Br-C1, MCF-7, SK-BR-3, and HCC1937 cells were cultured as described by Holst et al. JIMT-1 cells were cultured in DMEM/Ham’s F12 medium supplemented with 10% fetal calf serum, non-essential amino acids (1 mM), insulin (10 μg/ml), penicillin (100 U/ml), and streptomycin (100 μg/ml). MCF-10A cells were maintained in RPMI 1640 medium supplemented with 10% heat-inactivated fetal calf serum, non-essential amino acids (1 mM), insulin (10 μg/ml), epidermal growth factor (20 ng/ml), cholera toxin (50 ng/ml), hydrocortisone (250 ng/ml), penicillin (100 U/ml), and streptomycin (100 μg/ml). The MCF-10A and JIMT-1 cell lines were sub-cultured twice a week, while the L56Br-C1, MCF-7, SK-BR-3, and HCC1937 cells were sub-cultured once a week with an additional change of growth medium once a week.
(§3) Stock solutions ([…]) of the compounds were made in 100% DMSO. These were further diluted in PBS to obtain the correct concentrations used for the MTT assay. Appropriate DMSO controls were used. In general, the highest DMSO concentration was 0.1%, however, when treating with 100 μM and starting from a […] in 100% DMSO, a final concentration of 1% DMSO was used as the control.
(§4) The MTT assay was performed as previously described. Briefly, the cells were trypsinized and counted in a hemocytometer. Aliquots of 180 μl cell suspensions containing 3000 (MCF-10A) and 6000 (MCF-7, SK-BR-3, JIMT-1, L56Br-C1, and HCC1937) cells were seeded in the wells of 96-well plates. Compounds were added 24 hours after seeding to allow the attachment of cells. A concentration range between 0.1 to 100 μM was used in the MTT assays and appropriate DMSO controls. At 72 h of drug treatment, 20 μl of MTT solution (5 mg/ml MTT in PBS) was added to each well and the 96-well plates were returned to the CO2 incubator for 1 hour. The MTT-containing medium was removed. The blue formazan product formed by the reduction in live attached cells was dissolved by adding 100 μl of 100% DMSO per well after removal of the MTT-containing medium. The plates were swirled gently at room temperature for 10 minutes to dissolve the precipitate. Absorbance was monitored at 540 nm in a Labsystems iEMS Reader MF (Labsystems Oy, Helsinki, Finland) using the DeltaSoft II v.4.14 software (Biometallics Inc., Princeton, NJ, USA). Dose-response curves were drawn based on the % of the control in Excel. The IC50 was deduced from the curves.

[1] = system: breast cancer cell lines HCC1937, JIMT-1, L56Br-C1, MCF-7, and SK-BR-3; assay: MTT assay, panel of five breast cancer cell lines; settings: for Anticancer activity / relative potency in words: breast cell lines, comparison among the tested compounds
Method: The anticancer activities of sesquiterpenes 1, 3, 6–9, 11, 12, 14, and 16 were assessed in five breast-cancer cell lines, HCC1937, JIMT-1, L56Br-C1, MCF-7, and SK-BR-3, and compared with the cytotoxicity in the breast-derived non-cancerous cell line MCF-10A using the MTT colorimetric assay. […] 16 is an unsaturated ester and differs in that respect from the other compounds, but the lower activity of 3 compared to the similar compounds was unexpected. Costunolide (1) differs from the eudesmane sesquiterpenes by having the unsaturated lactone fused with a macrocyclic system instead of a cyclohexane ring, and the tension of the lactone ring is likely to be lower in 1. […] The difference in the activities of 7 and 8 may depend on the higher lipophilicity of 8, facilitating its absorption into the cells. In 11 and 14, the presence of a second Michael acceptor function may influence the activity. […] MCF-7 has a normal wild type p53 gene, which the MCF-10A cells also have, while the others have a mutated p53.
as §3, §4

JIMT-1 cells = assay: MTT cytotoxicity dose-response assay, JIMT-1; settings: 72 h treatment, a/b/c = one, two, three or more dose-response curves
Method: as §1, §2, §3, §4

MCF-7 cells = assay: MTT cytotoxicity dose-response assay, MCF-7; settings: 72 h treatment, a/b/c = one, two, three or more dose-response curves
Method: as §1, §2, §3, §4

SK-BR-3 cells = assay: MTT cytotoxicity dose-response assay, SK-BR-3; settings: 72 h treatment, a/b/c = one, two, three or more dose-response curves
Method: as §1, §2, §3, §4

HCC1937 cells = assay: MTT cytotoxicity dose-response assay, HCC1937; settings: 72 h treatment, a/b/c = one, two, three or more dose-response curves
Method: as §1, §2, §3, §4

[2] = MTT cytotoxicity dose-response assay, MCF-10A (non-cancerous); settings: human, MCF-10A cells (normal-like breast epithelial cell line), 72 h treatment, a/b/c = one, two, three or more dose-response curves
Method: as §1, §2, §3, §4

MCF-10A cells = assay: as above; settings: normal-like breast epithelial cell line, 72 h treatment, a/b/c = one, two, three or more dose-response curves
Method: as §1, §2, §3, §4

Row | SMILES | IC50 (L56Br-C1 cells) [µM] | IC50 (L56Br-C1 cells; Homo sapiens, 72 h) [µM] | IC50 ([1]; Homo sapiens, five breast cancer cell lines, read-out: IC50 values, range over the cancer cell lines) [µM] | Anticancer activity / relative potency in words [1] | IC50 (JIMT-1 cells) [µM] | IC50 (JIMT-1 cells; Homo sapiens, JIMT-1, 72 h) [µM] | IC50 (MCF-7 cells; Homo sapiens, MCF7, 72 h) [µM] | IC50 (SK-BR-3 cells; Homo sapiens, SK-BR-3, 72 h) [µM] | IC50 (HCC1937 cells) [µM] | IC50 (HCC1937 cells; Homo sapiens, HCC1937, 72 h) [µM] | IC50 at 72 h [2] [µM] | IC50 (MCF-7 cells) [µM] | IC50 (SK-BR-3 cells) [µM] | IC50 (MCF-10A cells) [µM]
1 | C=C1C(=O)O[C@@H]2/C=C(\C)CC/C=C(\C)CC[C@@H]12 [Compound 1, costunolide] | 4.8 | 3.7 | 2 to 6.2 | most active in all of the cell lines | 6.3 | 6.2 | 5.3 ± 1.4 | 2 ± 1 | 4.2 | 2.2 | 20 | – | – | –
2 | C=C1C(=O)O[C@@H]2[C@@H]3[C@@](C)(CC[C@@H]12)[C@@H](OC(C)=O)CC[C@]3(C)O (relative stereo) [Compound 3, (+)-(3aS*,5aR*,6S*,9S*,9aS*,9bS*)-9-Hydroxy-5a,9-dimethyl-3-methylidene-2-oxododeca-hydronaphtho[1,2-b]furan-6-yl acetate] | – | 9.3 | – | lowest activity | – | 18 | 27 | 10.1 | – | 23 | 38 | – | – | –
3 | C=C1C(=O)OC2C1CCC1(C)C(O)CCC(=C)C21 (stereo not drawn) [Compound 7, 1-epi-reynosin] | 10.1 | 9 | – | – | 14 | 12 | 23 | 7.6 | 18.5 | 12 | 22 | 30 | 6.4 | –
4 | C=C1C(=O)OC2C1CCC1(C)C(=O)C=CC(C)(O)C21 (stereo not drawn) [Compound 11, 11,13-didehydrovulgarin] | – | 3.6 | – | – | 13 | 10 | 10.1 | 4.2 ± 2.1 | 7.8 | 4.8 | 24 | 18 | – | 21
5 | C=C1C(=O)O[C@@H]2[C@H]3C(C)=CC[C@@H](O)[C@]3(C)CC[C@@H]12 [Compound 9, santamarin] | – | 12.3 ± 5.5 | – | – | 7.2 | 6.9 | 9.7 ± 0.9 | 3.1 ± 0.6 | – | 8.1 ± 1.8 | 17 | – | – | –
6 | COC(=O)C(N)CSCC1C(=O)OC2C1CCC1(C)C(O)CC=C(C)C21 (stereo not drawn) [Compound 21] | – | 73 | – | significantly less potent; also recorded: inactive or considerably less potent | – | > 100 | > 100 | 51 | – | 100 | 41 | – | 40 | –
7 | C=C(C(=O)OC)C1CCC2(C)C(O)CCC(=C)C2C1O (stereo not drawn) [Compound 16, baynol C] | – | 16 | – | lowest activity | 23 | 13 | 27.4 ± 17.2 | 9.9 ± 3 | – | 24 | 29 | – | – | –
8 | C=C1C(=O)O[C@H]2[C@H]1CCC(C)=C1[C@@H](OC(C)=O)[C@H]3O[C@@]3(C)[C@@H]12 [Compound 12, 2β-acetoxy-3α,4α-epoxy-3,4-dihydrokauniolide] | 10.1 | 6 | – | – | 10.1 | 7.1 | 7.1 | 4.2 ± 1.1 | 7.8 | 6 | – | 8.3 | – | –
9 | C=C1CC[C@H](OC(C)=O)[C@]2(C)CC[C@H]3C(=C)C(=O)O[C@@H]3[C@@H]12 (relative stereo) [Compound 8, (3aS*,5aR*,6S*,9aS*,9bS*)-5a-Methyl-3,9-dimethylidene-2-oxododecahydro-naphtho[1,2-b]furan-6-yl acetate] | 12 | 8.4 | – | – | 7 | 6.3 | 11 ± 1.7 | 4.7 ± 1.1 | – | – | 24 | – | – | –
10 | C=C1CC[C@@H](O)[C@]2(C)CC[C@H]3C(=C)C(=O)O[C@@H]3[C@@H]12 [Compound 6, reynosin] | – | 11 | – | – | 12 | 8.5 | 16.4 ± 7.1 | 5.2 ± 1.6 | – | 10 | 17 | – | – | –
11 | C=C1C(=O)O[C@@H]2[C@H]3C(C)=CC(=O)C3=C(C)CC[C@@H]12 [Compound 14, dehydroleucodin] | 10 | 5.8 | – | – | 8.1 | 7.5 | 3.3 | 2.5 ± 0.4 | 5.2 | 3 | 20 | 4.3 | – | 23
